Measurements published in patent US4766130A, “2-phenyl-imidazopyridin-ones and also useful as cardiotonics and anti-hypertensives” (Celamerck GmbH & Co. KG, priority 1983, dated 1988).
Structures can show the parent of a compound that is named as a salt.

Test system: anesthetized cats
Assay: Determination of the effect on blood pressure and the positive inotropic effect in anesthetized cats
Format: in vivo
Conditions: 2 mg/kg i.v.; for Increase in dp/dtmax in %: left ventricle contractility parameter; for Reduction in Blood Pressure in mm Hg: arterial pressure, aorta abdominalis
Experimental: Determination of the effect on blood pressure and the positive inotropic effect in anesthetized cats
The tests were carried out on cats which had been anesthetized with sodium pentobarbital (40 mg/kg i.p.). The animals breathed spontaneously. The arterial blood pressure was measured in the aorta abdominalis, using a Statham pressure transducer (P 23 Dc). To determine the positive inotropic effect, the pressure in the left ventricle was measured with a catheter-tip manometer (Millar PC-350 A). From this, the contractility parameter dp/dtmax was obtained, using an analogue differentiator. The test compounds were injected into a vena femoralis. The solvent used was physiological saline solution of Polydiol 200. Each compound was tested on at least 3 cats, dosage 2 mg/kg i.v.

Structure (SMILES)	Duration of effective action (Half life)	Increase in dp/dtmax in %	Reduction in Blood Pressure in mm Hg (value after the slash)	Reduction in Blood Pressure in mm Hg (value before the slash)
COc1cc(OS(C)(=O)=O)ccc1C1=NC2=NCC(=O)NC2=N1 [G, 2-(2-methoxy-4-methanesulfonyloxy-phenyl)-4H-imidazo[4,5-b]pyrazin-5-one]	5 min	+100%	-27 mm Hg	-26 mm Hg
COc1cc(OS(C)(=O)=O)ccc1-c1nc2[nH]c(=O)ncc2[nH]1 [A, 8-(2-methoxy-4-methanesulfonyloxy-phenyl)-3(1)H-purin-2-one]	42 min	+48%	-6 mm Hg	-8 mm Hg
COc1cc(OS(C)(=O)=O)ccc1-c1nc2c(OS(C)(=O)=O)nccc2[nH]1 [E, 2-(2-methoxy-4-methanesulfonyloxy-phenyl)-4-methanesulfonyloxy-imidazo[4,5-c]pyridine]	29 min	+87%	-27 mm Hg	-35 mm Hg
COc1cc(OS(C)(=O)=O)ccc1-c1nc2c(=O)[nH]ccc2[nH]1 [D, 2-(2-methoxy-4-methanesulfonyloxy-phenyl)-5H-imidazo[4,5-c]pyridin-4-one hydrochloride]	31 min	+117%	-42 mm Hg	-42 mm Hg
C#CCOc1ccc(-c2nc3c(=O)[nH]ccc3[nH]2)c(OC)c1 [F, 2-(2-methoxy-4-propargyloxy-phenyl)=5H-imidazo[4,5-c]pyridin-4-one]	8 min	+138%	-47 mm Hg	-59 mm Hg
COc1cc(OS(C)(=O)=O)ccc1-c1nc2nc(OS(C)(=O)=O)ccc2[nH]1 (single isomer, unassigned) [B, 2-(2-methoxy-4-methanesulfonyloxy-phenyl)-5-methanesulfonyloxy-imidazo[4,5-b]pyridine]	37 min	+53%	-42 mm Hg	-50 mm Hg
COc1cc(OS(C)(=O)=O)ccc1C1=NC2=CCC(=O)NC2=N1 [C, 2-(2-methoxy-4-methanesulfonyloxy-phenyl)-4H-imidazo[4,5-b]pyridin-5-one]	31 min	+158%	-54 mm Hg	-54 mm Hg
